PubChem BioAssay AID2305 (GlaxoSmithKline (GSK), 2010)
pIC50: −log10 of the molar value.

Test system: P. falciparum 3D7 growth, pLDH absorbance
Assay: blood-stage malaria parasite growth potency – strain 3D7, dose response (AID 2305)

For O=C(Nc1nc(-c2ccccn2)cs1)c1ccccc1COc1ccccc1, the pIC50 was 6.01.

With COc1ccc2ncc(OC)c(CCN3CC[C@@H](NCc4ccc5c(n4)NC(=O)CS5)[C@H](O)C3)c2n1 the pIC50 was 6.08.

For CCN1CCN(c2cc(C)c3cc(NC(=O)c4cccc(Cl)c4)ccc3n2)CC1, the pIC50 was 6.11.

Compound Cc1ccc2nc(C)n(C3CCN(C(=O)Cc4ccccc4C)CC3)c2c1 has a pIC50 of 6.62.

Work on COc1ccc2nccc([C@@H](O)CN3CCC(NC(=O)Cc4cc5ccccc5s4)CC3)c2c1 yielded a pIC50 of 6.04.

For Cc1cc(C)cc(OCC(O)CN(Cc2cc(Cl)cc(Cl)c2)C(=O)Nc2ccc(Cl)cc2)c1 (configuration not stated), the pIC50 was 6.09.

CC(=O)Nc1nc(C(=O)Nc2ccc(-c3cccc(-c4nc5ccccc5[nH]4)c3)cc2)cs1 gave a pIC50 of 6.26.

NCc1ccc(CNCc2cccc(-c3ccc(-c4nc5ccccc5[nH]4)cc3)c2)cc1 showed a pIC50 of 6.14.

CCCCCCN1CCCN(Cc2ccc(C(=O)Nc3ccc(C(C)C)cc3)cc2)CC1 showed a pIC50 of 6.08.

With O=C(Nc1ccc(C(=O)Nc2cccc(C3=NCCN3)c2)cc1)Nc1ccc(C2=NCCN2)cc1 the pIC50 was 7.00.

Compound COc1cc(OC)c(OC)cc1CN1CCC2(CC1)CN(Cc1ccc(Cl)c(Cl)c1)C(=O)O2 has a pIC50 of 6.09.

O=C(Nc1ccc2nccc(N3CCN4CCC[C@H]4C3)c2c1)c1ccc(Cl)c(Cl)c1 showed a pIC50 of 6.47.

C/C=C/C=C/C1=NCCc2cc(OCCC)ccc21 showed a pIC50 of 6.04.

Cc1cc(N[C@@H](Cc2ccccc2)C(=O)NCCc2ccccc2)nc(NCCOc2ccccc2)n1 was tested, and the pIC50 was 6.00.

In the case of CN(C)c1cc(NC(=O)Nc2ccccc2)c2ccccc2n1, the pIC50 was 6.39.

In the case of COc1ccc(NC(=O)CCNc2cc(C)nc(NCCc3ccccc3)n2)cc1, the pIC50 was 5.94.

Work on O=C(C=Cc1ccc(Cl)c(Cl)c1)NCCCCCN1CCCC(CCCNC(=O)/C=C/c2ccccc2)C1 (configuration not stated) yielded a pIC50 of 6.23.

With O=C(N[C@H]1CCN(CCc2ccc(O[C@H]3CCNC3)c(F)c2)C1)c1ccc(Cl)c(Cl)c1 the pIC50 was 5.92.

In the case of COc1cc(Nc2nc(N)n(C(=O)c3ccc4c(c3)OCO4)n2)cc(OC)c1OC, the pIC50 was 5.95.

With Cc1cc(Nc2cccc(C(F)(F)F)c2)nc(Nc2cccc(C(F)(F)F)c2)n1 the pIC50 was 6.19.

CC(C)(C)OC(=O)NCc1ccc(Nc2nnc(-c3cccc(C(=O)NCc4cc(C(F)(F)F)cc(C(F)(F)F)c4)c3)o2)cc1 gave a pIC50 of 6.07.

CCCNC(=O)C1Cc2c([nH]c3cc(Br)ccc23)C2(CCN(CCc3ccccc3)CC2)N1 (configuration not stated) showed a pIC50 of 6.01.

In the case of CCNc1cc(-c2cccc(OC)c2)nc(Nc2ccc(F)cc2)n1, the pIC50 was 5.90.

With N#Cc1cncc(-c2nc3c(N4CCC(Cc5ccccc5)CC4)cccc3n2CCNCc2ccccc2)c1 the pIC50 was 6.24.

With CCCc1c(C(=O)NC2CCC(CN3CCC(c4c[nH]c5ccccc45)CC3)CC2)cnn1-c1ccc(Cl)cc1 (configuration not stated) the pIC50 was 6.12.

In the case of Cc1cccc(NC(=O)NC2CCN(CCCCCNC(=O)/C=C/c3ccc(Cl)c(Cl)c3)CC2)c1, the pIC50 was 6.12.

With Cc1cc(N(CCO)CCCN2CCCCC2)nc(Nc2ccc(Cl)cc2)n1 the pIC50 was 6.26.

In the case of COc1cc(Nc2nc(N)c3cc(OC)c(OC)cc3n2)cc(OC)c1, the pIC50 was 6.57.

With Clc1ccc2c(NN=Cc3cccs3)ccnc2c1 the pIC50 was 6.04.

COc1ccc2c(c1)ncn2-c1cc(OCc2ccncc2Br)c(C(N)=O)s1 was tested, and the pIC50 was 6.21.

FC(F)(F)Oc1ccc(Nc2cc(-c3ccncc3)nc(-c3cccnc3)n2)cc1 gave a pIC50 of 6.17.

CCN(CC)CCOC(=O)c1ccc(NC(=O)c2cc(-c3ccc(C)cc3)nc3ccccc23)cc1 showed a pIC50 of 6.11.

For O=C(Nc1cccc(-c2cccc(-c3nc4ccc(F)cc4[nH]3)c2)c1)Nc1ccc2c(c1)OCO2, the pIC50 was 6.85.

CCN(CC)CCNc1ccnc2[nH]c3ccc([N+](=O)[O-])cc3c12 gave a pIC50 of 6.70.

With O=C1COC(c2ccccc2)(c2ccccc2)CN1CC1CCN(Cc2ccc(O)cc2Cl)C1 (configuration not stated) the pIC50 was 6.00.

Cc1cccc(C(=O)NCCCN2CCC(NC(=O)/C=C/c3ccc(Cl)c(Cl)c3)CC2)c1 gave a pIC50 of 5.77.

In the case of CCC(C)NC(=O)Nc1ccc(-c2cccc(-c3nc4ccc(C(F)(F)F)cc4[nH]3)c2)cc1 (configuration not stated), the pIC50 was 6.21.

N#Cc1ccc(S(=O)(=O)N2C(c3cccc([N+](=O)[O-])c3)C(C(=O)c3ccccc3)N(C3CCCCC3)C2c2cccc([N+](=O)[O-])c2)cc1 (configuration not stated) showed a pIC50 of 5.97.

In the case of Cc1c(Cl)cccc1NC(=S)NN=Cc1ccccn1, the pIC50 was 6.22.

Compound c1cncc(CN2CCCN(c3ccc4c(c3)CCN(Cc3ccc(-c5ncc[nH]5)cc3)CC4)CC2)c1 has a pIC50 of 6.12.

With CCOC(=O)CCCOc1cc(Cc2cnc(N)nc2N)cc(OC)c1OC the pIC50 was 6.62.

COc1cc(Cc2cnc(N)nc2N)c2c(c1OC)OC(C)C=C2 (configuration not stated) was tested, and the pIC50 was 5.90.

In the case of CN1CCC(NCc2ccc(-c3ccc(S(=O)(=O)NCc4ccccc4)c(F)c3)cc2)CC1, the pIC50 was 6.21.

CCOC(=O)c1c(C)n(C2CCCCCC2)c2cc(Br)c(O)cc12 was tested, and the pIC50 was 5.92.

Work on CC(=O)NCCNc1nccc(N2CCc3ncnc(Nc4ccc(OCc5ccccn5)c(Cl)c4)c3C2)n1 yielded a pIC50 of 6.09.

For O=C(O)CNCC(O)c1ccccc1 (configuration not stated), the pIC50 was 6.74.

c1ccc(C2=NN=C(c3ccccn3)[C@H]3[C@H]4C[C@@H]([C@@H]23)[C@@H]2[C@H]4[C@H]3C[C@@H]2c2ccccc23)nc1 showed a pIC50 of 6.07.

With CCC(O)(C#Cc1c(C)nc(N)nc1N)CC the pIC50 was 6.19.

Compound COc1ccc(Cc2nc(N=C(N)Nc3ccccc3)ccc2OC)cc1 has a pIC50 of 6.07.

For CCOC(=O)c1ccc(NC(=O)Nc2ccc(-c3ccc(-c4nc5ccccc5[nH]4)cc3)cc2)cc1, the pIC50 was 7.70.

O=C(C=CC(=O)N1CCCCC1)NCc1ccccc1 gave a pIC50 of 6.14.

COc1ccc(CON2C(N)=NC(N)=NC2(C)C)cc1OC showed a pIC50 of 8.00.

O=S(=O)(Nc1cccc(CCN2CCCCC2CCN2CCCC2)c1)c1cccc2ccccc12 (configuration not stated) gave a pIC50 of 6.09.

In the case of COc1ccc2ccccc2c1C=NNc1ccnc2ccc(F)cc12, the pIC50 was 5.95.

In the case of CCCCNC(=O)[C@H](CC1CCCCC1)NC(=O)c1ccc(O)c(-c2ccc(Cl)c(Cl)c2)c1, the pIC50 was 6.80.

With Cc1ccccc1N1CCN(c2ccc(C(=O)NC(C)C)cn2)CC1 the pIC50 was 6.05.

O=C(NCCN1CCCCC1)c1ccc(Nc2nccc(Nc3ccc(Oc4ccccc4)cc3)n2)cc1 showed a pIC50 of 6.26.

Work on Cc1cc(NC(c2ccc(Cl)cc2)c2ccc3cccnc3c2O)no1 (configuration not stated) yielded a pIC50 of 5.96.

Compound N#Cc1ccc(CN2CCC(Oc3ccc(NC(=O)c4cccs4)cc3)CC2)cc1 has a pIC50 of 5.99.

Work on Cc1nn(C)c(C)c1CN(Cc1nc(-c2cccc(Oc3ccccc3)c2)oc1C)C1CC1 yielded a pIC50 of 6.41.

CO/C(=C\C=C\c1cc2cc(Cl)c(Cl)cc2[nH]1)C(=O)NCCN1CCCCC1 gave a pIC50 of 5.85.

Compound Cc1ccccc1OCCCc1c(C)nc(N)nc1N has a pIC50 of 6.55.

Compound CC(C)CCN1CCC(Oc2ccc(NC(=O)c3ccccc3)cc2Cl)CC1 has a pIC50 of 5.89.

With Cc1nc(-c2nc(N3CCOCC3)ncc2-c2ccsc2)sc1C the pIC50 was 6.49.

CC(C)(C)CCN1CCC(NC(=O)c2ccc(-c3cccc(C(F)(F)F)c3)s2)CC1 gave a pIC50 of 6.12.

Compound COc1ccc(CNC(=O)NC2CCN(c3ccnc(Nc4cc(OC)c(OC)c(OC)c4)n3)C2)cc1 (configuration not stated) has a pIC50 of 6.02.

Work on NC1CCN(Cc2cccc(-c3csc(-c4nc5ccccc5[nH]4)c3)c2)C1 (configuration not stated) yielded a pIC50 of 6.05.

With C[C@@H](CNc1ccnc(Nc2ccc3[nH]c(=O)[nH]c3c2)n1)c1ccccc1 the pIC50 was 5.96.

O=C(NC1CCCCC1)N(Cc1cccc(-c2ccc(CNC3CCCC3)cc2)c1)C1CCN(Cc2ccccc2)CC1 gave a pIC50 of 6.02.

Work on CC(C)(C)OC(=O)[C@H](CC(N)=O)NC(=O)c1ccc(-c2ccc(-c3nc4ccc(C(F)(F)F)cc4[nH]3)s2)cc1 yielded a pIC50 of 6.57.

In the case of Cc1cc(N)c2cc(NC(=O)/C=C/c3ccccc3)ccc2n1, the pIC50 was 6.12.

Cc1cc(-c2ccc(CNCc3ccsc3)cc2)ccc1S(=O)(=O)NCCN1CCCC1 gave a pIC50 of 6.14.
